The subject of this test is cultured human mast cells (CHMC), IgE-induced degranulation. The test is described as follows: CHMC low cell density IgE activation: tryptase assay. The format is cell-based. Here is the method:
Inhibition of degranulation was measured at both low and high cell density by quantifying the release of the granule specific factors tryptase, histamine and hexosaminidase. Inhibition of release and/or synthesis of lipid mediators was assessed by measuring the release of leukotriene LTC4 and inhibition of release and/or synthesis of cytokines was monitored by quantifying TNF-α, IL-6 and IL-13. Tryptase and hexosaminidase were quantified using fluorogenic substrates as described in their respective examples. […] The protocols of the various assays are provided below.
A second phase is performed to convert the expanded CD34-negative progenitor cells into differentiated mucosal mast cells. These mucosal cultured human mast cells (“CHMC”) are derived from CD34+ cells isolated from umbilical cord blood and treated to form a proliferated population of CD34-negative progenitor cells, as described above. […] Also, the cytokine composition of the medium was modified such that it contained SCF (200 ng/mL) and recombinant human IL-6 (200 ng/mL; Peprotech, Catalog No. 200-06 reconstituted to 100 ug/mL in sterile 10 mM acetic acid) (“CM/SCF/IL-6 medium”).
Pellet CHMC cells (980 rpm, 10 min) and resuspend in pre-warmed MT. Add 65 ul of cells to each 96-well plate. Depending on the degranulation activity for each particular CHMC donor, load 1000-1500 cells/well. Mix four times followed by a 1 hr incubation at 37° C. […] Stimulate cells by adding 25 ul of 6× anti-IgE solution to the appropriate plates. Add 25 ul MT to un-stimulated control wells. Mix twice following addition of the anti-IgE. Incubate at 37° C. for 30 minutes. […] Spin plates at 1000 rpm for 10 min to pellet cells. Transfer 25 ul of supernatant to a 96-well black bottom plate and add 100 ul of freshly diluted tryptase substrate solution to each well. Incubate plates at room temperature for 30 min.
In Table 1, all reported values are IC50s (in μM). […] In Table 1, all reported values are IC50s (in μM).

The mark [1] stands for this setting: low cell density CHMC, 8pt, read-out: LD Tryptase, CHMC, IgE, 8pt.
Where [2] appears, read: low cell density CHMC, 3pt, read-out: LD Tryptase, CHMC, IgE, 3pt.
The mark [3] stands for this setting: Homo sapiens, Mast cell, low cell density CHMC, 8pt, read-out: LD Tryptase, CHMC, IgE, 8pt.
Where [4] appears, read: CHMC low cell density, 3pt, read-out: LD Tryptase, CHMC, IgE, 3pt.
The mark [5] stands for this setting: CHMC low cell density, 8pt, read-out: LD Tryptase, CHMC, IgE, 8pt.

Like-named read-outs stand apart in the source and are kept apart here.

Take `CC1C(=O)Nc2cc(Nc3nc(Nc4cccc(O)c4)ncc3F)ccc2S1(=O)=O` (racemic) [Compound 284, racemic-5-Fluoro-N2-[3-hydoxyphenyl]-N4-(2-methyl-1,1,3-trioxo-2H,4H-benzo[1,4]thiazin-6-yl)-2,4-pyrimidinediamine]: the IC50 under setting [1] is less than 10 µM.

In the case of `CNC(=O)COc1cccc(Nc2ncc(F)c(Nc3ccc4c(c3)NC(=O)C(C)S4(=O)=O)n2)c1` (racemic) [Compound 285, racemic-5-Fluoro-N2-[3-(N-methylamino)carbonylmethyleneoxyphenyl]-N4-(2-methyl-1,1,3-trioxo-2H,4H-benzo[1,4]thiazin-6-yl)-2,4-pyrimidinediamine], the IC50 under setting [1] was less than 10 µM.

Take `CC1Sc2ccc(Nc3nc(Cl)ncc3F)cc2NC1=O` (racemic) [Compound 314, racemic-N2-Chloro-5-fluoro-N4-(2-methyl-3-oxo-2H,4H-benzo[1,4]thiazin-6-yl)-4-pyrimidinea mine]: the IC50 under setting [2] was less than 10 µM.

Take `CC1C(=O)Nc2cc(Nc3nc(Cl)ncc3F)ccc2S1(=O)=O` (racemic) [Compound 317, racemic-N2-Chloro-5-fluoro-N4-(2-methyl-1,1,3-trioxo-2H,4H-benzo[1,4]thiazin-6-yl)-4-pyrimidinea mine]: the IC50 under setting [2] is more than 10 µM.

Take `C[C@H]1Oc2ccc(Nc3nc(Nc4cc5c6c(c4)c(CCO)cn6CCO5)ncc3F)cc2NC1=O` [Compound 205, (R)-5-Fluoro-N2-[6-(2-hydroxyethyl)-2,3-dihydropyrrolo[1,2,3-d,e]benzoxazin-8-yl]-N4-(2-methyl-3-oxo-2H,4H-benz[1,4]oxazin-6-yl)-2,4-pyrimidinediamine]: under setting [1], the IC50 was less than 10 µM.

With `CC1(C)COc2ccc(Nc3nc(Nc4cc5c6c(c4)c(CCO)cn6CCO5)ncc3F)cc2N1` [Compound 206, N4-(3,4-Dihydro-3,3-dimethyl-2H,4H-benz[1,4]oxazin-6-yl)-5-fluoro-N2-[6-(2-hydroxyethyl)-2,3-dihydropyrrolo[1,2,3-d,e]benzoxazin-8-yl]-2,4-pyrimidinediamine], the IC50 under setting [1] is less than 10 µM.

With `O=C1COc2cc(Nc3nc(Nc4ccc(-c5ncco5)cc4)ncc3F)ccc2N1` [Compound 241], the IC50 under setting [3] is less than 10 µM.

Turning to `CNC(=O)COc1cccc(Nc2ncc(F)c(Nc3ccc4c(c3)NC(=O)C(C)(C)S4(=O)=O)n2)c1` [Compound 275, N4-(2,2-Dimethyl-1,1,3-trioxo-4H-benzo[1,4]thiazin-6-yl)-5-fluoro-N2-[3-(N-methylamino)carbonylmethyleneoxyphenyl]-2,4-pyrimidinediamine], under setting [1], the IC50 was less than 10 µM.

As for `COc1ccc(Nc2ncc(F)c(Nc3ccc4c(c3)NC(=O)C(C)(C)S4(=O)=O)n2)cc1Cl` [Compound 276], the IC50 under setting [1] is less than 10 µM.

As to `CNC(=O)COc1cccc(Nc2ncc(F)c(Nc3ccc4c(c3)NC(=O)C(C)S4)n2)c1` (stereo not shown) [Compound 279, 5-Fluoro-N2-[3-(N-methylamino)carbonylmethyleneoxyphenyl]-N4-(2-methyl-3-oxo-2H,4H-benzo[1,4]thiazin-6-yl)-2,4-pyrimidinediamine], under setting [1], the IC50 was less than 10 µM.

With `CC1(C)C(=O)Nc2cc(Nc3nc(Nc4cccc(O)c4)ncc3F)ccc2S1(=O)=O` [Compound 283, racemic-N4-(2,2-Dimethyl-1,1,3-trioxo-4H-benzo[1,4]thiazin-6-yl)-5-fluoro-N2-[3-hydoxyphenyl]-2,4-pyrimidinediamine], under setting [1], the IC50 was less than 10 µM.

For the compound `COc1ccc(Nc2ncc(F)c(Nc3ccc4c(c3)NC(=O)C(C)(C)S4)n2)cc1Cl` [Compound 289], the IC50 under setting [1] was less than 10 µM.

Take `CNC(=O)COc1cccc(Nc2ncc(F)c(Nc3ccc4c(c3)NC(=O)C(C)(C)S4)n2)c1` [Compound 294, N4-(2,2-Dimethyl-3-oxo-4H-benzo[1,4]thiazin-6-yl)-5-fluoro-N2-[3-(N-methylamino)carbonylmethyleneoxyphenyl]-2,4-pyrimidinediamine]: the IC50 is, setting by setting: under setting [2], less than 10 µM; under setting [1], less than 10 µM.

Take `COc1ccc(Nc2ncc(F)c(Nc3ccc4c(c3)NC(=O)C(C)(C)S4)n2)cc1F` [Compound 299]: the IC50 under setting [2] is less than 10 µM and the IC50 under setting [1] was less than 10 µM.

Take `CNC(=O)COc1cccc(Nc2ncc(F)c(Nc3ccc4c(c3)NC(=O)CS4(=O)=O)n2)c1` [Compound 305, 5-Fluoro-N2-[3-(N-methylamino)carbonylmethyleneoxyphenyl]-N4-(1,1,3-trioxo-2H,4H-benzo[1,4]thiazin-6-yl)-2,4-pyrimidinediamine]: under setting [1], the IC50 is less than 10 µM.

Regarding `COc1cc(Nc2ncc(F)c(Nc3ccc4c(c3)NC(=O)CS4(=O)=O)n2)cc(OC)c1OC` [Compound 306, 5-Fluoro-N2-(3,4,5-triimethoxylphenyl)-N4-(1,1,3-trioxo-2H,4H-benzo[1,4]thiazin-6-yl)-2,4-pyrimidinediamine], the IC50 under setting [1] is less than 10 µM.

`O=C1CSc2ccc(Nc3nc(Cl)ncc3F)cc2N1` [Compound 313, N2-Chloro-5-fluoro-N4-(3-oxo-2H,4H-benzo[1,4]thiazin-6-yl)-4-pyrimidinea mine]: the IC50 under setting [2] is less than 10 µM.

Take `O=C1CS(=O)(=O)c2ccc(Nc3nc(Cl)ncc3F)cc2N1` [Compound 315, N2-Chloro-5-fluoro-N4-(1,1,3-trioxo-2H,4H-benzo[1,4]thiazin-6-yl)-4-pyrimidinea mine]: the IC50 under setting [2] is more than 10 µM.

With `CC1(C)Sc2ccc(Nc3nc(Cl)ncc3F)cc2NC1=O` [Compound 316, N2-Chloro-N4-(2,2,-dimethyl-3-oxo-4H-benzo[1,4]thiazin-6-yl)-5-fluoro-4-pyrimidinea mine], the IC50 under setting [2] was less than 10 µM.

Consider `CC1(C)C(=O)Nc2cc(Nc3nc(Cl)ncc3F)ccc2S1(=O)=O` [Compound 318, N2-Chloro-N4-(2,2-dimethyl-1,1,3-trioxo-4H-benzo[1,4]thiazin-6-yl)-5-fluoro-4-pyrimidinea mine], for which, under setting [2], the IC50 is less than 10 µM.

Consider `CC1(C)COc2ccc(Nc3nc(Cl)ncc3F)cc2N1` [Compound 320, N2-Chloro-N4-(3,3-dimethyl-1,4-benzoxazin-6-yl)-5-fluoro-pyrimidinea mine], for which the IC50 under setting [2] is less than 10 µM.

Consider `OC=C1C=C(Nc2ncc(F)c(Nc3ccc4c(c3)OCCO4)n2)CC(=CO)C1` [Compound 342], for which the IC50 under setting [3] was less than 10 µM.

For `CNC(=O)n1ccc2ccc(Nc3ncc(F)c(Nc4ccc5c(c4)NC(=O)C(C)(C)O5)n3)cc21` [Compound 347, N4-(2,2-Dimethyl-3-oxo-4H-benz[1,4]oxazin-6-yl)-N2-[1-(N-methylaminocarbony)lindol-6-yl)-5-fluoro-2,4-pyrimidinediamine], the IC50 under setting [2] was less than 10 µM.

On to `Cc1cc(C)cc(Nc2ncc(F)c(Nc3ccc4c(c3)OC(F)(F)C(F)(F)O4)n2)c1` [Compound 362, N2-(3,5-Dimethyphenyl)-5-fluoro-N4-[3,4-(tetrafluoroethylenedioxy)phenyl]-2,4-pyrimidinediamine], for which the IC50 was less than 10 µM under setting [4] and more than 10 µM under setting [5].

For `Cc1cc(Nc2ncc(F)c(Nc3ccc4c(c3)OC(F)(F)C(F)(F)O4)n2)cc(C(F)(F)F)c1` [Compound 366, 5-Fluoro-N2-(3-methyl-5-trifluoromethyl)-N4-[3,4-(tetrafluoroethylenedioxy)phenyl]-2,4-pyrimidinediamine], the IC50 under setting [4] is less than 10 µM.

Take `CN(c1ccc2c(c1)OCCO2)c1nc(NN)ncc1F` [Compound 533, N4-(3,4-Ethylenedioxyphenyl)-5-fluoro-N4-methyl-2-hydrazine-4-pyrimidinea mine]: the IC50 under setting [4] is more than 10 µM.

With `CNC(=O)COc1c(C)cc(Nc2ncc(F)c(Nc3ccc4c(c3)OCCO4)n2)cc1C` [Compound 572, N2-[3,5-dimethyl-4-(N-methylamino)carbonylmethyleneoxyphenyl]-N4-(3,4-ethylenedioxyphenyl)-5-fluoro-2,4-pyrimidinediamine], the IC50 under setting [4] is less than 10 µM and the IC50 under setting [5] was less than 10 µM.

On to `CNC(=O)COc1c(C)cc(Nc2ncc(F)c(Nc3ccc4c(c3)NC(=O)C(C)(C)O4)n2)cc1C` [Compound 574, N2-[3,5-dimethyl-4-(N-methylamino)carbonylmethyleneoxyphenyl]-N4-(2,2-dimethyl-3-oxo-4H-benz[1,4]oxazin-6-yl)-5-fluoro-2,4-pyrimidinediamine], for which the IC50 is less than 10 µM under setting [4] and less than 10 µM under setting [5].

For the compound `CNC(=O)Cn1ccc2cc(Nc3ncc(F)c(Nc4ccc5c(c4)OCCO5)n3)ccc21` [Compound 655, N4-(3,4-Ethylenedioxyphenyl)-5-fluoro-N2-[1-(N-methylamino)carbonylmethyleneindol-5-yl]-2,4-pyrimidinediamine], the IC50 under setting [5] is less than 10 µM.

The values are drawn from patent US7560466B2, “Methods of treating or preventing autoimmune diseases with 2,4-pyrimidinediamine compounds” (Rigel Pharmaceuticals, Inc., priority 2003, dated 2009).
